Measurements from publication PMC11979885, “Mechanistic Investigation into the Phase Separation Behavior of Soluplus in the Presence of Biorelevant Media” (Molecular Pharmaceutics, 2025).
Values after ≈ are worked out from the molar mass of the structure shown. Read-outs that look alike come from different tables or passages of the source.

What was measured:
Type in all cases: physicochemical
[1] = Equilibrium solubility of crystalline RO6897779 in FaSSIF-V1 with and without Soluplus
Experimental: The solubility of RO6897779 was determined in FaSSIF-V1 and in the presence of previously outlined Soluplus concentrations dissolved in FaSSIF-V1 to determine the apparent degree of supersaturation induced during solvent shift experiments. Samples were prepared by adding an excess amount of RO6897779 (≈5 mg) to 3 mL of the excipient solutions, or neat FaSSIF-V1 medium, and were stirred at 250 rpm at 37 °C (Mixdrive 15, 2MAG, München, Germany). Samples were equilibrated for 48 h. Solid–liquid separation was conducted by centrifugation at 11,500 g for 5 min using Ultrafree centrifugal units. The supernatant was immediately diluted with a 1:1 (v/v) mixture of acetonitrile and deionized water to fall into the linear region of the calibration curve during high-performance liquid chromatography (HPLC), as described under HPLC drug quantification below.
(§1) RO6897779 was quantified using reversed-phase HPLC. An Agilent 1200 series HPLC system (Agilent Technologies Inc., US) equipped with an Agilent Eclipse Plus C18 column (5 μm, 4.6 mm × 150 mm) was used for sample separation. Detection and quantification of RO6897779 were performed by using a variable wavelength detector set to 214 nm. The mobile phase consisted of (A) HPLC-grade deionized water and (B) and acetonitrile both containing 0.1% [v/v] formic acid. […] Data analysis was conducted using Agilent’s OpenLab CDS software Version 2.6.

[2] = DSC glass forming ability / crystallization tendency classification; details: classification according to Baird et al.
Experimental: The manufactured spray-dried dispersion as well as the neat crystalline drug was investigated in triplicate using DSC to detect the presence of crystalline material and to gain information about the glass transition temperature (Tg) of the materials. For this purpose, a DSC 1 Star system instrument from Mettler-Toledo AG (Greifensee, Switzerland) was used. The instrument was calibrated for temperature and heat flow using indium, and the analysis was performed with an air flow rate of 150 mL min^–1. Samples were weighed into 40 μL aluminum pans (Mettler-Toledo AG, Greifensee, CH), sealed with pierced aluminum lids, and placed into the DSC. The analysis of the spray-dried dispersion was carried out as a heating cycle which heated the sample from RT to 190 °C at 10 K min^–1, followed by cooling down to −50 °C at −20 K min^–1 and finally reheating to 190 °C at 10 K min^–1. The analysis of the neat crystalline drug was carried out according to Baird et al.,[36] to evaluate the glass forming ability of the drug. The second heating ramp was used to measure the Tg without the influence of evaporating moisture.

[3] = Solvent shift supersaturation kinetics of RO6897779 in Soluplus solutions in FaSSIF-V1; details: for apparent degree of supersaturation (aDS) induced: nominal 1 mg mL^–1 drug, FaSSIF-V1, 37 °C
Experimental: Solvent shift experiments were conducted in the Pion microDISS Profiler to assess the supersaturation kinetics of RO6897779 in the presence of Soluplus dissolved in FaSSIF-V1. […] Supersaturation kinetics were assessed at D/P ratios of 10, 20, 30, and 40% corresponding to the polymer concentrations outlined previously. The polymer was dissolved in FaSSIF-V1 at RT and subsequently heated to 37 °C. A concentrated DMSO stock solution was prepared at a concentration of 50 mg mL^–1 RO6897779. From this stock solution, an aliquot of 400 μL was spiked into 19.6 mL of preheated solvent shift medium, so that a nominal concentration of 1 mg mL^–1 RO6897779 was obtained without exceeding DMSO concentrations of 2% [v/v], while assuming a negligible residual solvent influence on solubility.[40] The solutions were stirred at 250 rpm and the temperature was maintained at 37 °C and continuously monitored. At time points of 5, 15, 30, 60, 120, 180, and 240 min, 2 × 200 μL aliquots were withdrawn. […] Subsequently, the supernatant of the media was diluted appropriately with an acetonitrile–water mixture. An intermission of 30 min was introduced as a change in Soluplus phase behavior was expected once the sample reached RT. It was assumed that this intermission would lead to a difference in the sampled concentration of RO6897779.
as §1

- solubility at 48 h ([1]; FaSSIF-V1, 37 °C, fassif, thermodynamic from solid, Form I, pH = 6.5 ± 0, read-out: solubility in FaSSIF-V1): 22.9 µg/mL (≈ 48.2 µM)
- solubility at 48 h ([1]; FaSSIF-V1 with Soluplus 1.50 mg mL^–1, aqueous with cosolvent or surfactant or cyclodextrin, thermodynamic from solid, FaSSIF-V1, Soluplus 1.50 mg mL^–1 (D/P 40%), 48 h, 37 °C, read-out: solubility): 69 µg/mL (≈ 145 µM)
- solubility at 48 h ([1]; FaSSIF-V1 with Soluplus 2.33 mg mL^–1, aqueous with cosolvent or surfactant or cyclodextrin, thermodynamic from solid, FaSSIF-V1, Soluplus 2.33 mg mL^–1 (D/P 30%), 48 h, 37 °C, read-out: solubility): 96.2 µg/mL (≈ 202 µM)
- solubility at 48 h ([1]; FaSSIF-V1 with Soluplus 4.00 mg mL^–1, aqueous with cosolvent or surfactant or cyclodextrin, thermodynamic from solid, FaSSIF-V1, Soluplus 4.00 mg mL^–1 (D/P 20%), 48 h, 37 °C, read-out: solubility): 130 µg/mL (≈ 274 µM)
- solubility at 48 h ([1]; FaSSIF-V1 with Soluplus 9.00 mg mL^–1, aqueous with cosolvent or surfactant or cyclodextrin, thermodynamic from solid, FaSSIF-V1, Soluplus 9.00 mg mL^–1 (D/P 10%), 48 h, 37 °C, read-out: solubility): 215 µg/mL (≈ 452 µM)
- solubility at 48 h ([1]; pH 6.5, thermodynamic from solid, neat FaSSIF-V1, Soluplus 0.00 mg mL^–1 (D/P 100%), 48 h, 37 °C, read-out: solubility): 22.9 µg/mL (≈ 48.2 µM)
- crystallization tendency [2]: class III
- apparent degree of supersaturation (aDS) induced ([3]; D/P 10%): 4.65
- sampled drug concentration in solvent shift experiment ([3]; D/P 20%, FaSSIF-V1, after immediate centrifugation and after cooling to RT): 150–170 μg mL^–1
- apparent degree of supersaturation (aDS) induced ([3]; D/P 20%): 7.7
- apparent degree of supersaturation (aDS) induced ([3]; D/P 30%): 10.4
- apparent degree of supersaturation (aDS) induced ([3]; D/P 40%): 14.5
Structure (SMILES): O=C(OCc1ccc(OC(F)(F)F)cc1)N1C[C@@H]2CN(C(=O)c3ccc4[nH]nnc4c3)C[C@H]2C1 [RO6897779]
